# Assay results published in the supplement of paper PMC4862054.
# Legend:
# Settings in all cases: 72 h
# BT-474 [1] = system: BT-474
# Method in brief: (§1)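 Two sequential readouts followed a 72 h incubation of breast cancer cell lines with compound at 5 concentrations in 10-fold steps over a compound-specific 10,000-fold range: CellTox Green fluorescence (485/520 nm) for cell death, then CellTiter-Glo luminescence, after 10 min at room temperature, for viability. Each plate was normalised to 0.1 % DMSO and a positive kill control. Dose-response curves were fitted for EC50, censored at the top concentration.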
# BT-549 [2] = system: BT-549
# Method in brief: as §1
# CAL-120 [3] = system: CAL-120
# Method in brief: as §1
# CAL-148 [4] = system: CAL-148
# Method in brief: as §1
# CAL-51 [5] = system: CAL-51
# Method in brief: as §1
# CAL-85-1 [6] = system: CAL-85-1
# Method in brief: as §1
# DU-4475 [7] = system: DU-4475
# Method in brief: as §1
# HCC1143 [8] = system: HCC1143
# Method in brief: as §1
# HCC1599 [9] = system: HCC1599
# Method in brief: as §1
# HCC1937 [10] = system: HCC1937
# Method in brief: as §1
# HDQ-P1 [11] = system: HDQ-P1
# Method in brief: as §1
# Hs578T [12] = system: Hs578T
# Method in brief: as §1
# MCF-10A [13] = system: MCF-10A
# Method in brief: as §1
# MDA-MB-231 [14] = system: MDA-MB-231
# Method in brief: as §1
# MDA-MB-436 [15] = system: MDA-MB-436
# Method in brief: as §1
# MDA-MB-453 [16] = system: MDA-MB-453
# Method in brief: as §1
# MDA-MB-468 [17] = system: MDA-MB-468
# Method in brief: as §1
# MFM-223 [18] = system: MFM-223
# Method in brief: as §1
# SK-BR-3 [19] = system: SK-BR-3
# Method in brief: as §1
# CAL-148 [20] = system: CAL-148; remark: listed apart in the source
# Method in brief: (§2)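 The reported EC50 was fitted from percent-inhibition dose-response curves and censored at the highest concentration. Breast cancer cell lines (20 µl suspension) were added to 384-well plates containing compound in 5 µl medium and incubated 72 h, and viability was read with 2.5 µl CellTiter-Blue over 2 h at 37 °C at 560/590 nm. Each plate was normalised to vehicle and a positive kill control and checked by Z'-factor, and rows with zero drug sensitivity score were dropped.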
# CAL-51 [21] = system: CAL-51; remark: listed apart in the source
# Method in brief: as §2
# CAL-85-1 [22] = system: CAL-85-1; remark: listed apart in the source
# Method in brief: as §2
# DU-4475 [23] = system: DU-4475; remark: listed apart in the source
# Method in brief: as §2
# HDQ-P1 [24] = system: HDQ-P1; remark: listed apart in the source
# Method in brief: as §2
# MDA-MB-453 [25] = system: MDA-MB-453; remark: listed apart in the source
# Method in brief: as §2
# BT-474 [26] = system: BT-474; remark: listed apart in the source
# Method in brief: as §2
# BT-549 [27] = system: BT-549; remark: listed apart in the source
# Method in brief: as §2
# CAL-120 [28] = system: CAL-120; remark: listed apart in the source
# Method in brief: as §2
# HCC1143 [29] = system: HCC1143; remark: listed apart in the source
# Method in brief: as §2
# HCC1599 [30] = system: HCC1599; remark: listed apart in the source
# Method in brief: as §2
# HCC1937 [31] = system: HCC1937; remark: listed apart in the source
# Method in brief: as §2
# Hs578T [32] = system: Hs578T; remark: listed apart in the source
# Method in brief: as §2
# MDA-MB-231 [33] = system: MDA-MB-231; remark: listed apart in the source
# Method in brief: as §2
# MDA-MB-436 [34] = system: MDA-MB-436; remark: listed apart in the source
# Method in brief: as §2
# MDA-MB-468 [35] = system: MDA-MB-468; remark: listed apart in the source
# Method in brief: as §2
# MFM-223 [36] = system: MFM-223; remark: listed apart in the source
# Method in brief: as §2
# SK-BR-3 [37] = system: SK-BR-3; remark: listed apart in the source
# Method in brief: as §2
# BT-474 [38] = system: BT-474; remark: listed apart in the source
# Protocol: (§3)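 Drug sensitivity and resistance testing (DSRT) of breast cancer cell lines in 384-well plates, 5 concentrations in 10-fold dilutions over a compound-specific 10,000-fold range. After 72 h, cytotoxicity was read by CellTox Green fluorescence and viability by CellTiter-Glo luminescence (multiplexed), normalised to DMSO and benzethonium chloride controls. EC50 is the inflection point of the fitted dose-response curve (bottom asymptote free, so it can be relative for partial curves) and is censored at the highest tested concentration. Rows with DSS 0 (no meaningful response) were excluded.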
# BT-549 [39] = system: BT-549; remark: listed apart in the source
# Protocol: as §3
# CAL-120 [40] = system: CAL-120; remark: listed apart in the source
# Protocol: as §3
# CAL-148 [41] = system: CAL-148; remark: listed apart in the source
# Protocol: as §3
# CAL-51 [42] = system: CAL-51; remark: listed apart in the source
# Protocol: as §3
# CAL-85-1 [43] = system: CAL-85-1; remark: listed apart in the source
# Protocol: as §3
# HCC1937 [44] = system: HCC1937; remark: listed apart in the source
# Protocol: as §3
# HDQ-P1 [45] = system: HDQ-P1; remark: listed apart in the source
# Protocol: as §3
# Hs578T [46] = system: Hs578T; remark: listed apart in the source
# Protocol: as §3
# MCF-10A [47] = system: MCF-10A; remark: listed apart in the source
# Protocol: as §3
# MDA-MB-231 [48] = system: MDA-MB-231; remark: listed apart in the source
# Protocol: as §3
# MDA-MB-436 [49] = system: MDA-MB-436; remark: listed apart in the source
# Protocol: as §3
# MDA-MB-468 [50] = system: MDA-MB-468; remark: listed apart in the source
# Protocol: as §3
# MFM-223 [51] = system: MFM-223; remark: listed apart in the source
# Protocol: as §3
smiles,measurement,setting,value
CC(C)C[C@H](NC(=O)[C@H](CCc1ccccc1)NC(=O)CN1CCOCC1)C(=O)N[C@@H](Cc1ccccc1)C(=O)N[C@@H](CC(C)C)C(=O)[C@@]1(C)CO1 [Carfilzomib],"EC50, CellTiter-Glo",BT-474 [1],13.8 nM
same,"EC50, CellTiter-Glo",BT-549 [2],3.63 nM
same,"EC50, CellTiter-Glo",CAL-120 [3],25.3 nM
same,"EC50, CellTiter-Glo",CAL-148 [4],33.1 nM
same,"EC50, CellTiter-Glo",CAL-51 [5],13.1 nM
same,"EC50, CellTiter-Glo",CAL-85-1 [6],8.12 nM
same,"EC50, CellTiter-Glo",DU-4475 [7],42.8 nM
same,"EC50, CellTiter-Glo",HCC1143 [8],8.56 nM
same,"EC50, CellTiter-Glo",HCC1599 [9],96.1 nM
same,"EC50, CellTiter-Glo",HCC1937 [10],17.2 nM
same,"EC50, CellTiter-Glo",HDQ-P1 [11],19.1 nM
same,"EC50, CellTiter-Glo",Hs578T [12],12.4 nM
same,"EC50, CellTiter-Glo",MCF-10A [13],90.6 nM
same,"EC50, CellTiter-Glo",MDA-MB-231 [14],16.9 nM
same,"EC50, CellTiter-Glo",MDA-MB-436 [15],6.13 nM
same,"EC50, CellTiter-Glo",MDA-MB-453 [16],7.36 nM
same,"EC50, CellTiter-Glo",MDA-MB-468 [17],3.42 nM
same,"EC50, CellTiter-Glo",MFM-223 [18],3.9 nM
same,"EC50, CellTiter-Glo",SK-BR-3 [19],5.41 nM
same,"EC50, CellTiter-Blue viability",CAL-148 [20],25.8 nM
same,"EC50, CellTiter-Blue viability",CAL-51 [21],20.2 nM
same,"EC50, CellTiter-Blue viability",CAL-85-1 [22],13.6 nM
same,"EC50, CellTiter-Blue viability",DU-4475 [23],12.2 nM
same,"EC50, CellTiter-Blue viability",HDQ-P1 [24],10.9 nM
same,"EC50, CellTiter-Blue viability",MDA-MB-453 [25],2.22 nM
same,"EC50, CellTiter-Blue viability",BT-474 [26],26.9 nM
same,"EC50, CellTiter-Blue viability",BT-549 [27],2.78 nM
same,"EC50, CellTiter-Blue viability",CAL-120 [28],9.07 nM
same,"EC50, CellTiter-Blue viability",HCC1143 [29],8.47 nM
same,"EC50, CellTiter-Blue viability",HCC1599 [30],88.6 nM
same,"EC50, CellTiter-Blue viability",HCC1937 [31],2.21 nM
same,"EC50, CellTiter-Blue viability",Hs578T [32],5.47 nM
same,"EC50, CellTiter-Blue viability",MDA-MB-231 [33],6.44 nM
same,"EC50, CellTiter-Blue viability",MDA-MB-436 [34],14.3 nM
same,"EC50, CellTiter-Blue viability",MDA-MB-468 [35],5.66 nM
same,"EC50, CellTiter-Blue viability",MFM-223 [36],1.94 nM
same,"EC50, CellTiter-Blue viability",SK-BR-3 [37],5.45 nM
same,"EC50, CellTox Green",BT-474 [38],60.2 nM
same,"EC50, CellTox Green",BT-549 [39],11.4 nM
same,"EC50, CellTox Green",CAL-120 [40],34.6 nM
same,"EC50, CellTox Green",CAL-148 [41],16.1 nM
same,"EC50, CellTox Green",CAL-51 [42],5.31 nM
same,"EC50, CellTox Green",CAL-85-1 [43],9 nM
same,"EC50, CellTox Green",HCC1937 [44],6.49 nM
same,"EC50, CellTox Green",HDQ-P1 [45],25.1 nM
same,"EC50, CellTox Green",Hs578T [46],31.9 nM
same,"EC50, CellTox Green",MCF-10A [47],136 nM
same,"EC50, CellTox Green",MDA-MB-231 [48],10.2 nM
same,"EC50, CellTox Green",MDA-MB-436 [49],6.94 nM
same,"EC50, CellTox Green",MDA-MB-468 [50],0.78 nM
same,"EC50, CellTox Green",MFM-223 [51],8.42 nM
